These are literature values, as cited in patent US20240050452A1, “USE OF C[…] THE TREATMENT OF SEIZURES ASSOCIATED WITH EPILEPSY SYNDROMES IN PATIENTS TAKING BRIVARACETAM” (GW Research Limited, priority 2020, published 2024).

SMILES strings stand for the structures.

The test system of the data set is seizure frequencies. The settings on record: increasing CBD dose combined with a constant BRV dose; seizure types not disclosed.

As to `C=C(C)[C@@H]1CCC(C)=C[C@H]1c1c(O)cc(CCCCC)cc1O` [CBD, cannabidiol], the “effect on seizure frequencies” value was “reductions in seizure frequencies”.
